# From article PMC7915867, “Discovery of a Small Molecule Inhibitor of Human Adenovirus Capable of Preventing Escape from the Endosome” (International Journal of Molecular Sciences, 2021)
# Where “and” joins values, the source holds several entries; their conditions need not be identical. Identical values can stand only once.
# Assays:
# [1] = system: wild-type HAdV5; experiment: Nuclear-associated HAdV genomes; type: cell-based, human adenovirus; settings: 45 min postinfection, A549 cells, 2000 vp/cell, 10-fold IC50
# Description: The nuclear delivery of HAdV genomes was evaluated by real-time PCR following nuclear isolation from infected cells. […] Forty-five minutes after infection, A549 cells were trypsinized, collected, and then washed twice with PBS. After that, we separated cytoplasmic and nuclear fractions using a hypotonic buffer solution and NP-40 detergent and resuspended the cell pellet in 500 μL of 1 × hypotonic buffer (20 mM Tris-HCl pH 7.4, 10 mM NaCl, 3 mM MgCl2). After incubation for 15 min at 4 °C, 25 μL of NP-40 was added and the samples were vortexed. The homogenates were centrifuged for 10 min at 835g and 4 °C. After the removal of the cytoplasmic fraction (supernatant), HAdV DNA was separated from the nuclear fraction (pellet) and from the cytoplasmic fraction using the E.Z.N.A.® Tissue DNA Kit (Omega Bio-tek, Norcross, GA, USA).
# [2] = Cytotoxicity assay (AlamarBlue); type: cell-based; settings: human, A549 cells, A549 cell line
# Description: The cytotoxicity of these derivatives was tested by commercial kit AlamarBlue® (Ref. DAL1025, Invitrogen, MA, USA). […] The cytotoxic concentration 50 (CC50) value was obtained by using the statistical package GraphPad Prism. This assay was performed in duplicate.
# [3] = system: HAdV-GFP; experiment: Thermostability assay (capsid stabilization); type: cell-based, human adenovirus; settings: 50 μM, A549 cells
# Description: HAdV-GFP (37.5 ng) was incubated with compound 16 (50 µM) or the same volume of DMSO for 1 h in complete DMEM. Parallel samples were incubated for 10 min at the indicated temperatures, cooled to r.t., and added to A549 cells on ice to synchronize the infection. After the incubation, cells were washed twice with PBS 1x to remove the nonattached virus and the excess of compound 16 and DMSO. Cells were then incubated for 24 h at 37 °C and 5% CO2 before being visualized for GFP expression in an Olympus inverted microscope Model IX71 (Hamburg, Germany) and analyzed by capturing representative images of each condition using the CellSens Dimension platform (Olympus, Hamburg, Germany).
# [4] = system: HAdV-5 DNA replication; experiment: HAdV DNA quantification by real-time PCR (DNA replication); type: cell-based, human adenovirus; settings: Human adenovirus sp., A549, 24 h; read-out: Inhibition of HAdV-5 DNA replication (qPCR)
# Description: All samples were carried out in duplicate. After incubation for 24 h at 37 °C, DNA was purified from the cell lysate with the E.Z.N.A.® Tissue DNA Kit (Omega Bio-tek, Norcross, GA, USA) following the manufacturer’s instructions. TaqMan primers and probes for a common region of the HAdV5 hexon were designed with the GenScript Real-Time PCR (TaqMan) Primer Design software (GenScript, Leiden, Netherlands). Oligonucleotides sequences were: AQ1: 5′-GCCACGGTGGGGTTTCTAAACTT-3′; AQ2: 5′-GCCCCAGTGGTCTTACATGCACAT-3′; Probe: 6-FAM-5′-TGCACCAGACCCGGGCTCAGGTACTCCGA-3′-TAMRA. Real-time PCR mixtures contained 9.5 μL of the purified DNA, AQ1 and AQ2 at a concentration of 200 nM each and Probe at a concentration of 50 nM in a total volume of 25 μL. The PCR cycling protocol was 95 °C for 3 min followed by 40 cycles of 95 °C for 10 s and 60 °C for 30 s. Human glyceraldehyde-3-phosphate dehydrogenase (GAPDH) gene was applied as internal control. Oligonucleotides sequences for GAPDH and conditions were previously reported by Rivera et al..
# For quantification, gene fragments from hexon and GAPDH were cloned into the pGEM-T Easy vector (Promega, MA, USA), and known concentrations of template were used to produce a standard curve in parallel for each experiment. All assays were done in thermal cycler LightCycler® 96 System (Roche, Basel, Switzerland).
# [5] = system: wild-type HAdV5; experiment: Virus yield reduction (virus burst assay); type: cell-based, human adenovirus
# Description: After 48 h, cells were harvested and subjected to three rounds of freeze/thaw. Serial dilutions of clarified lysates were titrated on A549 cells (3 × 10^4 cells/well), and we calculated TCID50 values using an endpoint dilution method.
# [6] = system: HAdV5; experiment: HAdV-mediated endosome disruption (α-sarcin co-delivery assay); type: cell-based, human adenovirus; settings: A549 cells, 10-fold IC50, virus below 12 ng
# Description: A549 cells (~20,000 cells/well) were incubated in DMEM without cysteine or methionine supplemented with 10% dialyzed FBS [DMEM (−)] in black 96-well plates for 1 h before infection. […] The medium was then removed and replaced with 50 μL DMEM (−) containing 0.1 mg/mL α-sarcin (Santa Cruz Biotechnology, Dallas, TX, USA) and the virus and drug mixtures. After 2 h at 37 °C, the Click-iT HPG Alexa Fluor 488 Protein Synthesis Assay Kits (Invitrogen, MA, USA) were used to analyze protein synthesis according to the manufacturer’s instructions. The incorporation of the amino acid analog of methionine L-homopropargylglycine (HPG) containing Alexa Fluor 488 azide was measured using a Typhoon 9410 imager (GE Healthcare Life Sciences, MA, USA) and calculated subtracting the background level of the control well containing L-homopropargylglycine (HPG) and α-sarcin but not virus (100% incorporation).
# [7] = system: HAdV5-GFP; experiment: Time of addition assay; type: cell-based, human adenovirus; settings: 10-fold IC50; 293β5 cells, HAdV5-GFP 2000 vp/cell
# [8] = system: human cytomegalovirus (HCMV); experiment: HCMV DNA replication assay; type: cell-based; settings: HFF cells, 72 h postinfection, 10-fold IC50 of HAdV plaque assay
# Description: The broad antiviral activity of compound 16 was tested using human cytomegalovirus (HCMV) in a DNA replication assay. To avoid the influence of newly generated viral particles from subsequent rounds of infection, HCMV DNA was extracted from HFF cells at 72 h postinfection and quantified in a single round of infection as a measurement of the DNA replication efficiency.
# [9] = system: HAdV5-GFP; experiment: microbe, parasite or virus in culture; type: cell-based, human adenovirus
# Description: Compounds were measured at concentrations of 10 μM and in a dose−response assay ranging from 10 to 0.3 μM using low MOI infections (0.06 vp/cell) in a plaque assay. […] Cells were infected with HAdV5-GFP (0.06 vp/cell) and rocked for 2 h at 37 °C, when cells reached 80%–90% confluency. When the incubation was finished, the inoculum was removed followed by washing the cells once with PBS. […] The compounds were also added to the mixture in concentrations ranging from 10 to 0.3 μM. After incubation for 7 days at 37 °C, we scanned plates with a Typhoon FLA 9000 imager (GE Healthcare Life Sciences, MA, USA) and quantified plaques with ImageJ [47].
structure (smiles),measurement,setting,value
"O=C(NCC1CCCCC1)c1cc(Cl)ccc1O [Compound 16, 5-Chloro-N-(cyclohexylmethyl)-2-hydroxybenzamide]",Inhibition of HAdV DNA accessibility to the nucleus,[1],more than 99%
same,CC50 at 48 h,[2],91.2 ± 18.4 µM
same,"GFP expression 24 h postinfection, virus heated to 48 °C",[3],significant levels of GFP expression
same,"GFP expression 24 h postinfection, virus heated to 52 °C",[3],some residual expression
same,inhibition at 7.8 µM,[4],50%
same,Virus yield reduction compared to niclosamide,[5]; 16 at 10-fold IC50 versus niclosamide 5 μM,2.5 fold
same,Virus Yield Reduction,"[5]; A549 cells, HAdV 100 vp/cell, 48 h, niclosamide 5 μM, 16 at 10-fold IC50, versus DMSO",208 fold and 208 ± 108 fold
same,HAdV-mediated endosome lysis,[6],prevented HAdV-mediated endosome lysis
same,"Inhibition of HAdV infection, compound added at 0 min p.i.",[7],95.3%
same,"Inhibition of HAdV infection, compound added at 20 min p.i.",[7],30.7%
same,Decrease of total HCMV DNA compared to DMSO control,[8],95%
same,Plaque Assay IC50,"[9]; HAdV5-GFP, low MOI, 293β5 cell line",submicromolar
same,inhibition at 10 µM,"[9]; Human adenovirus sp., read-out: Plaque Assay (10 μM) (%) Inhibition",100%
same,IC50,"[9]; Human adenovirus sp., read-out: Plaque Assay IC50",0.78 ± 0.01 µM
same,Selectivity Index (SI),[9]; ratio of CC50 to IC50 in plaque assay,116.9
